Active and inactive are the calls of the source. No cut-off for these calls is given here. Peptide text beside a SMILES is read from it. * marks the point of attachment. Isovaleryl = CC(C)CC(=O)*; Propionyl = CCC(=O)*; Bz = O=C(c1ccccc1)*
Tests used:
Nociceptin receptor [1] = target: T1, Nociceptin receptor (Homo sapiens, UniProt P41146); experiment: Displacement of [3H]nociceptin from human ORL1-Galpha fusion receptor in COS7 cells; type: cell-based, COS-7
Nociceptin receptor [2] = target: T1, Nociceptin receptor; experiment: Activity at human ORL1-Galpha fusion receptor in COS7 cells assessed as stimulation of [35S]GTP-gamma-S binding; type: functional, cell-based, COS-7
[3] = target: Nociceptin receptor (Mus musculus) (UniProt P35377); experiment: Antagonist activity at ORL1[…] receptor in ICR mouse vas deferens assessed as inhibition of electrically-stimulated muscle contraction at 10 uM; type: functional, tissue-based; set-up: scale not given: the % may be the effect or the level left
[4] = target: Nociceptin receptor (Mus musculus) (UniProt P35377); experiment: Antagonist activity at ORL1[…] receptor in ICR mouse vas deferens assessed as inhibition of electrically-stimulated muscle contraction; type: functional, tissue-based
[5] = target: Nociceptin receptor (Mus musculus) (UniProt P35377); experiment: Agonist activity at ORL1[…] receptor in ICR mouse vas deferens assessed as inhibition of electrically-stimulated muscle contraction at 10 uM; type: functional, tissue-based; set-up: scale not given: the % may be the effect or the level left

Chain of Nociceptin receptor (Mus musculus) (P35377 whole entry): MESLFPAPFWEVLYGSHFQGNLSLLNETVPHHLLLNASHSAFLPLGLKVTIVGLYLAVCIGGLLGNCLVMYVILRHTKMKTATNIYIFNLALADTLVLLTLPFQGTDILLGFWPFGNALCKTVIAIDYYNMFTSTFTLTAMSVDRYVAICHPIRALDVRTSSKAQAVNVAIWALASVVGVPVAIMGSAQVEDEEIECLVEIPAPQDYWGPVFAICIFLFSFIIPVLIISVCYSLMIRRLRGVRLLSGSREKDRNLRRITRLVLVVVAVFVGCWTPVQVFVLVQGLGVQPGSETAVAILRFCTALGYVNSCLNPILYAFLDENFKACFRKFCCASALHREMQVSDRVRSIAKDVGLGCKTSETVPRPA
T1 sequence (P41146 whole entry, the tested form may be a part): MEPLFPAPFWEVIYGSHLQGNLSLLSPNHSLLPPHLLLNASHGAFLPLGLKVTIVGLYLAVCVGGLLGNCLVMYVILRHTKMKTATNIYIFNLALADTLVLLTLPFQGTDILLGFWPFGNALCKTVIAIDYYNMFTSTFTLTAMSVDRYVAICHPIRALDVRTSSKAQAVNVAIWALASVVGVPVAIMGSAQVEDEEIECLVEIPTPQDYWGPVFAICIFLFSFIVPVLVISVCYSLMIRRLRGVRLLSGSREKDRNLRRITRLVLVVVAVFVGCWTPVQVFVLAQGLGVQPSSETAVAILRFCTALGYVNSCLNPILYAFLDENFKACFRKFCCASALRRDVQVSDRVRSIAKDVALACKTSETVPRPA

Compound: CC[C@H](C)[C@H](NC(=O)[C@H](CCCN=C(N)N)NC(=O)[C@H](Cc1ccc(O)cc1)NC(=O)[C@H](Cc1ccc(O)cc1)NC(=O)[C@H](CCCN=C(N)N)NC(=O)C(C)(C)CC)C(=O)N[C@@H](CCCCN)C(N)=O
- IC50 (Nociceptin receptor [1]): 45.5 nM
- EC50 (Nociceptin receptor [2]): 17.7 nM

Compound: CC[C@H](C)[C@H](NC(=O)[C@H](CCCNC(=N)N)NC(=O)[C@H](Cc1ccc(O)cc1)NC(=O)[C@H](Cc1ccccc1)NC(=O)[C@H](CCCNC(=N)N)NC(=O)c1ccccc1)C(=O)N[C@@H](CCCCN)C(N)=O (Bz-RFYRIK-NH2)
- Activity [3]: 90%

Compound: CC[C@H](C)[C@H](NC(=O)[C@H](CCCNC(=N)N)NC(=O)[C@H](Cc1ccc(O)cc1)NC(=O)[C@H](Cc1ccccc1)NC(=O)[C@@H](N)CCCNC(=N)N)C(=O)N[C@@H](CCCCN)C(N)=O
- Activity [4]: inactive

Compound: CC[C@H](C)[C@H](NC(=O)[C@H](CCCN=C(N)N)NC(=O)[C@H](Cc1ccc(O)cc1)NC(=O)[C@H](Cc1ccc(O)cc1)NC(=O)[C@H](CCCN=C(N)N)NC(=O)C12CC3CC(CC(C3)C1)C2)C(=O)N[C@@H](CCCCN)C(N)=O
- IC50 (Nociceptin receptor [1]): 3.42 nM
- EC50 (Nociceptin receptor [2]): 19.2 nM

Compound: CC[C@H](C)[C@H](NC(=O)[C@H](CCCNC(=N)N)NC(=O)[C@H](Cc1ccc(O)cc1)NC(=O)[C@H](Cc1ccccc1)NC(=O)[C@H](CCCNC(=N)N)NC(=O)CC(C)C)C(=O)N[C@@H](CCCCN)C(N)=O (Isovaleryl-RFYRIK-NH2)
- Activity [4]: Dose-dependent effect

Compound: CC[C@H](C)[C@H](NC(=O)[C@H](CCCNC(=N)N)NC(=O)[C@H](Cc1ccc(O)cc1)NC(=O)[C@H](Cc1ccc(O)cc1)NC(=O)[C@@H](N)CCCNC(=N)N)C(=O)N[C@@H](CCCCN)C(N)=O
- IC50 (Nociceptin receptor [1]): 218 nM

Compound: CC[C@H](C)[C@H](NC(=O)[C@H](CCCNC(=N)N)NC(=O)[C@H](Cc1ccc(O)cc1)NC(=O)[C@H](Cc1ccc(O)cc1)NC(=O)[C@H](CCCNC(=N)N)NC(=O)C(C)(C)C)C(=O)N[C@@H](CCCCN)C(N)=O
- IC50 (Nociceptin receptor [1]): 14.9 nM
- EC50 (Nociceptin receptor [2]): 97.9 nM

Compound: CCCCC(=O)N[C@@H](CCCN=C(N)N)C(=O)N[C@@H](Cc1ccc(O)cc1)C(=O)N[C@@H](Cc1ccc(O)cc1)C(=O)N[C@@H](CCCN=C(N)N)C(=O)N[C@H](C(=O)N[C@@H](CCCCN)C(N)=O)[C@@H](C)CC
- IC50 (Nociceptin receptor [1]): 5.67 nM

Compound: CCC(=O)N[C@@H](CCCNC(=N)N)C(=O)N[C@@H](Cc1ccccc1)C(=O)N[C@@H](Cc1ccc(O)cc1)C(=O)N[C@@H](CCCNC(=N)N)C(=O)N[C@H](C(=O)N[C@@H](CCCCN)C(N)=O)[C@@H](C)CC (Propionyl-RFYRIK-NH2)
- Activity [3]: 90%

Compound: CC[C@H](C)[C@H](NC(=O)[C@H](CCCN=C(N)N)NC(=O)[C@H](Cc1ccc(O)cc1)NC(=O)[C@H](Cc1ccc(O)cc1)NC(=O)[C@H](CCCN=C(N)N)NC(=O)CC(C)(C)C)C(=O)N[C@@H](CCCCN)C(N)=O
- IC50 (Nociceptin receptor [1]): 16.9 nM
- EC50 (Nociceptin receptor [2]): 46.5 nM

Compound: CC[C@H](C)[C@H](NC(=O)[C@H](CCCN=C(N)N)NC(=O)[C@H](Cc1ccc(O)cc1)NC(=O)[C@H](Cc1ccc(O)cc1)NC(=O)[C@H](CCCN=C(N)N)NC=O)C(=O)N[C@@H](CCCCN)C(N)=O
- IC50 (Nociceptin receptor [1]): 0.66 nM
- EC50 (Nociceptin receptor [2]): 23.3 nM

Compound: CC(C)C[C@H](NC(=O)[C@H](CCCCN)NC(=O)[C@H](CCCNC(=N)N)NC(=O)[C@H](C)NC(=O)[C@H](CO)NC(=O)[C@H](CCCCN)NC(=O)[C@H](CCCNC(=N)N)NC(=O)[C@H](C)NC(=O)CNC(=O)[C@@H](NC(=O)[C@H](Cc1ccccc1)NC(=O)CNC(=O)CNC(=O)[C@@H](N)Cc1ccccc1)[C@@H](C)O)C(=O)N[C@@H](C)C(=O)N[C@@H](CC(N)=O)C(=O)N[C@@H](CCC(N)=O)C(=O)O
- ED50 [4]: 19.3 nM

Compound: CC[C@H](C)[C@H](NC(=O)[C@H](CCCNC(=N)N)NC(=O)[C@H](Cc1ccc(O)cc1)NC(=O)[C@H](Cc1ccc(O)cc1)NC(=O)[C@H](CCCNC(=N)N)NC(=O)CC(C)C)C(=O)N[C@@H](CCCCN)C(N)=O
- IC50 (Nociceptin receptor [1]): 7.42 nM

Compound: CCC(=O)N[C@@H](CCCNC(=N)N)C(=O)N[C@@H](Cc1ccc(O)cc1)C(=O)N[C@@H](Cc1ccc(O)cc1)C(=O)N[C@@H](CCCNC(=N)N)C(=O)N[C@H](C(=O)N[C@@H](CCCCN)C(N)=O)[C@@H](C)CC
- IC50 (Nociceptin receptor [1]): 1.7 nM
- EC50 (Nociceptin receptor [2]): 27.6 nM

Compound: CCCCCC(=O)N[C@@H](CCCNC(=N)N)C(=O)N[C@@H](Cc1ccc(O)cc1)C(=O)N[C@@H](Cc1ccc(O)cc1)C(=O)N[C@@H](CCCNC(=N)N)C(=O)N[C@H](C(=O)N[C@@H](CCCCN)C(N)=O)[C@@H](C)CC
- IC50 (Nociceptin receptor [1]): 21.7 nM

Compound: CCC(C)C(=O)N[C@@H](CCCNC(=N)N)C(=O)N[C@@H](Cc1ccc(O)cc1)C(=O)N[C@@H](Cc1ccc(O)cc1)C(=O)N[C@@H](CCCNC(=N)N)C(=O)N[C@H](C(=O)N[C@@H](CCCCN)C(N)=O)[C@@H](C)CC (stereo partly drawn)
- IC50 (Nociceptin receptor [1]): 21.3 nM
- EC50 (Nociceptin receptor [2]): 52.7 nM

Compound: CC[C@H](C)[C@H](NC(=O)[C@H](CCCN=C(N)N)NC(=O)[C@H](Cc1ccc(O)cc1)NC(=O)[C@H](Cc1ccc(O)cc1)NC(=O)[C@H](CCCN=C(N)N)NC(C)=O)C(=O)N[C@@H](CCCCN)C(N)=O
- Activity [5]: 40%

Compound: CCC(CC)C(=O)N[C@@H](CCCN=C(N)N)C(=O)N[C@@H](Cc1ccc(O)cc1)C(=O)N[C@@H](Cc1ccc(O)cc1)C(=O)N[C@@H](CCCN=C(N)N)C(=O)N[C@H](C(=O)N[C@@H](CCCCN)C(N)=O)[C@@H](C)CC
- IC50 (Nociceptin receptor [1]): 92.6 nM

Compound: CCCC(=O)N[C@@H](CCCNC(=N)N)C(=O)N[C@@H](Cc1ccc(O)cc1)C(=O)N[C@@H](Cc1ccc(O)cc1)C(=O)N[C@@H](CCCNC(=N)N)C(=O)N[C@H](C(=O)N[C@@H](CCCCN)C(N)=O)[C@@H](C)CC
- IC50 (Nociceptin receptor [1]): 1.86 nM
- EC50 (Nociceptin receptor [2]): 32.4 nM

Compound: CC[C@H](C)[C@H](NC(=O)[C@H](CCCNC(=N)N)NC(=O)[C@H](Cc1ccc(O)cc1)NC(=O)[C@H](Cc1ccc(O)cc1)NC(=O)[C@H](CCCNC(=N)N)NC(=O)c1ccccc1)C(=O)N[C@@H](CCCCN)C(N)=O
- IC50 (Nociceptin receptor [1]): 14.7 nM
- EC50 (Nociceptin receptor [2]): 18.3 nM

Compound: CC[C@H](C)[C@H](NC(=O)[C@H](CCCNC(=N)N)NC(=O)[C@H](Cc1ccc(O)cc1)NC(=O)[C@H](Cc1ccc(O)cc1)NC(=O)[C@H](CCCNC(=N)N)NC(=O)C(C)C)C(=O)N[C@@H](CCCCN)C(N)=O
- IC50 (Nociceptin receptor [1]): 2.81 nM
- EC50 (Nociceptin receptor [2]): 44.5 nM

Compound: CCCC(C)C(=O)N[C@@H](CCCNC(=N)N)C(=O)N[C@@H](Cc1ccc(O)cc1)C(=O)N[C@@H](Cc1ccc(O)cc1)C(=O)N[C@@H](CCCNC(=N)N)C(=O)N[C@H](C(=O)N[C@@H](CCCCN)C(N)=O)[C@@H](C)CC (stereo partly drawn)
- IC50 (Nociceptin receptor [1]): 47.3 nM
- EC50 (Nociceptin receptor [2]): 23.8 nM

From ChEMBL document CHEMBL1142261 (Bioorg Med Chem, 2008)
